pIC50: −log10 of the molar value.
Legend:
OX2 = target: T1, OX2 (Homo sapiens, UniProt O43614); assay: Orexin receptor cell-based functional assay (FLIPR [Ca2+]i), OX2; settings: CHO-OX2 cells, FLIPR calcium, EC90 of OXA
T1 construct: expressed in transfected cells; host or cells: CHO (CHO-OX2)
T1 sequence (O43614 1-444): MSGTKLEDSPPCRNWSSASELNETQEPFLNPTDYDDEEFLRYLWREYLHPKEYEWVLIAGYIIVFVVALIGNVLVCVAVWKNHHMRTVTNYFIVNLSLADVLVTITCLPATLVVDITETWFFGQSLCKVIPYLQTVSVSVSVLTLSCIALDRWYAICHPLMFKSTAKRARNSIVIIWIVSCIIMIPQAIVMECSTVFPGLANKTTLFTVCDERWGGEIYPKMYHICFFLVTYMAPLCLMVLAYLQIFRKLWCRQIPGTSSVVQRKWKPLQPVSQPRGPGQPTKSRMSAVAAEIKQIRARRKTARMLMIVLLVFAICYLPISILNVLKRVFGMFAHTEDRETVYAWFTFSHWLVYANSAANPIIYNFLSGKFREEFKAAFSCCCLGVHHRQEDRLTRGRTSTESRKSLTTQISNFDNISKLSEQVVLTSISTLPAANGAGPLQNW
Method: (§1) Measurement of [Ca^2+]i using a FLIPR: CHO-OX1 or CHO-OX2 cells were seeded into black-walled clear-base 384-well plates (Corning, catalog #3712) at a density of 20,000 cells per well in F12-K medium supplemented with 10% FBS and then incubated in a 5% CO2, 37 C incubator overnight to reach 90% confluency. The cells were incubated with equal volume of calcium6 loading buffer (Molecular Devices, Inc.) containing 2.5 mM probenecid at 37° C. for 2 h, followed by test compounds (dose-range 0.1 nM-10 μM) for another 30 min. The plates were then placed into a FLIPR (Molecular Devices, Inc.) to monitor fluorescence (λ excitation 488 nm, λ emission 540 nm) before and after the addition of EC90 of [OXA].

OX1 = target: T2, OX1 (Homo sapiens, UniProt O43613); assay: Orexin receptor cell-based functional assay (FLIPR [Ca2+]i), OX1; settings: CHO-OX1 cells, FLIPR calcium, EC90 of OXA
T2 construct: expressed in transfected cells; host or cells: CHO (CHO-OX1)
T2 sequence (O43613 1-425): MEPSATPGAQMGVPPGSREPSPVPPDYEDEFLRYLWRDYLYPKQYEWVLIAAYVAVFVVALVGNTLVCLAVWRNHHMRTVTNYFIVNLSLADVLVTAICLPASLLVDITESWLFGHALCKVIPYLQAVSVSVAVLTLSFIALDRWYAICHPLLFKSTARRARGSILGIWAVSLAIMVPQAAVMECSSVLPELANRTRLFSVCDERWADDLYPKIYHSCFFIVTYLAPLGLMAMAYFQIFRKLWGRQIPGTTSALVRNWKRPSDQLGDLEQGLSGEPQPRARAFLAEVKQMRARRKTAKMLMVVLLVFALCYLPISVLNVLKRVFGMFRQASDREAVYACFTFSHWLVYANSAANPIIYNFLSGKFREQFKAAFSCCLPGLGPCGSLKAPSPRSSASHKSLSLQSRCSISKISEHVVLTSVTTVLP
Method: as §1

Compound | pIC50 (OX2) | pIC50 (OX1)
Cc1cccc(C(=O)N2CCC(F)(F)[C@H]2CNc2ncc(Cl)cn2)c1-n1nccn1 [Example 63] | < 5.30 | 8.52
Cc1ccc(C(=O)N2CCC(F)(F)[C@H]2CNc2ncc(C(F)(F)F)cn2)c(-n2nccn2)c1F [Example 8] | < 5.30 | 7.96
Cc1ccc(-n2nccn2)c(C(=O)N2CCC(F)(F)[C@H]2COc2ccc(C(F)(F)F)cn2)c1 [Example 25] | < 5.30 | 6.64
O=C(c1ccc(F)c(F)c1-n1nccn1)N1CCC(F)(F)[C@H]1CNc1ncc(C(F)(F)F)cn1 [Example 59] | < 5.30 | 6.12
N#Cc1ccc(-n2nccn2)c(C(=O)N2CCC(F)(F)[C@H]2CNc2ncc(Cl)cn2)c1 [Example 66] | < 5.30 | 8.22
Cc1ccc(C(=O)N2CCC(F)(F)[C@H]2CNc2ncc(Cl)cn2)c(-n2nccn2)c1F [Example 68] | < 5.30 | 6.98
O=C(c1cc(F)ccc1-n1nccn1)N1CCC(F)(F)[C@H]1CNc1cnc(C(F)(F)F)cn1 [Example 77] | 6.14 | 8.52
O=C(c1cc(F)c(F)cc1-n1nccn1)N1CCC(F)(F)[C@H]1CNc1ncc(C(F)(F)F)cn1 [Example 51] | 6.08 | 7.62
Cc1c(F)ccc(C(=O)N2CCC(F)(F)[C@H]2CNc2ncc(Cl)cn2)c1-n1nccn1 [Example 69] | < 5.30 | 7.68
Cc1nc(C(=O)N2CCC(F)(F)[C@H]2CNc2ncc(C(F)(F)F)cn2)c(-c2ccc(F)cc2)s1 [Example 1] | < 5.30 | 9.00
Cc1ccc(-n2nccn2)c(C(=O)N2CCC(F)(F)[C@H]2CNc2ncc(Cl)cn2)c1 [Example 65] | < 5.30 | 8.22
O=C(c1cc(F)ccc1-c1ncccn1)N1CCC(F)(F)[C@H]1CNc1ncc(C(F)(F)F)cn1 [Example 10] | < 5.30 | 8.70
O=C(c1ccc(F)c(F)c1-n1nccn1)N1CCC(F)(F)[C@H]1CNc1ncc(Cl)cn1 [Example 67] | < 5.30 | 6.00
Cc1cc(C)c(-n2nccn2)c(C(=O)N2CCC(F)(F)[C@H]2CNc2ncc(C(F)(F)F)cn2)c1 [Example 60] | < 5.30 | 7.80
O=C(c1cc(F)ccc1-n1nccn1)N1CCC(F)(F)[C@H]1CNc1ncc(Cl)cn1 [Example 64] | < 5.30 | 7.66
O=C(c1ncccc1-n1nccn1)N1CCC(F)(F)[C@H]1CNc1ncc(Cl)cn1 [Example 70] | < 5.30 | 7.70
O=C(c1cc(F)ccc1-n1nccn1)N1CCC(F)(F)[C@H]1COc1ccc(C(F)(F)F)cn1 [Example 74] | < 5.30 | 6.18

Further lines, results first:

pIC50 (OX2) | pIC50 (OX1) | Compound
< 5.30 | 8.40 | O=C(c1cc(F)ccc1-n1nccn1)N1CCC(F)(F)[C@H]1CNc1ncc(C(F)(F)F)cn1 [Example 5]
< 5.30 | 8.52 | O=C(c1c(F)cccc1-n1nccn1)N1CCC(F)(F)[C@H]1CNc1ncc(C(F)(F)F)cn1 [Example 57]
< 5.30 | 7.85 | N#Cc1ccc(-n2nccn2)c(C(=O)N2CCC(F)(F)[C@H]2CNc2ncc(C(F)(F)F)cn2)c1 [Example 56]
< 5.30 | 7.82 | Cc1c(F)ccc(C(=O)N2CCC(F)(F)[C@H]2CNc2ncc(C(F)(F)F)cn2)c1-n1nccn1 [Example 7]
< 5.30 | 8.40 | O=C(c1cccc(F)c1-n1nccn1)N1CCC(F)(F)[C@H]1CNc1ncc(C(F)(F)F)cn1 [Example 3]
< 5.30 | 7.85 | Cc1cccc(-n2nccn2)c1C(=O)N1CCC(F)(F)[C@H]1CNc1ncc(C(F)(F)F)cn1 [Example 58]
< 5.30 | 8.15 | Cc1cccc(C(=O)N2CCC(F)(F)[C@H]2CNc2ncc(C(F)(F)F)cn2)c1-n1nccn1 [Example 55]
< 5.30 | 8.40 | Cc1ccc(-n2nccn2)c(C(=O)N2CCC(F)(F)[C@H]2CNc2ncc(C(F)(F)F)cn2)c1 [Example 2]
< 5.30 | 8.52 | O=C(c1cc(Cl)ccc1-n1nccn1)N1CCC(F)(F)[C@H]1CNc1ncc(C(F)(F)F)cn1 [Example 54]
< 5.30 | 8.22 | O=C(c1c(-n2nccn2)ccc(F)c1F)N1CCC(F)(F)[C@H]1CNc1ncc(C(F)(F)F)cn1 [Example 52]
6.08 | 7.82 | O=C(c1ccc(F)cc1-n1nccn1)N1CCC(F)(F)[C@H]1CNc1ncc(C(F)(F)F)cn1 [Example 53]

Source: patent US10221170B2, “Difluoropyrrolidines as orexin receptor modulators” (Eolas Therapeutics, Inc., priority 2014, dated 2019)
